# Experimental data reported in US8097637B2, “Benzoyl-piperidine derivatives as dual modulators of the 5-HT2A and D3 receptors” (Hoffmann-La Roche Inc., priority 2007, dated 2012).
# How the values were obtained:
# [1] = target: T1, human 5-HT2A serotonin receptor (Homo sapiens, UniProt P28223); assay: Radioligand binding ([3H]-ketanserin) to cloned human 5-HT2A receptor, HEK-293 EBNA cell membranes; details: 1.1 nM [3H]-ketanserin, 1 h at RT, Cheng-Prusoff
# T1 construct: expressed in transfected cells; host or cells: HEK-293 EBNA cells, transient transfection; membrane preparation
# Method: (§1) Membrane Preparation for Human D2, Human D3 and Human 5-HT2A Receptors
# (§2) The cells were harvested 48 h post-transfection, washed three times with cold PBS and stored at −80° C. prior to use. The pellet was suspended in cold 50 mM Tris-HCl buffer containing 10 mM EDTA (pH 7.4) and homogenized with a Polytron (Kinematica AG, Basel, Switzerland) for 20-30 sec at 12.000 rpm. After centrifugation at 48.000×g for 30 min at 4° C., the pellet was resuspended in cold 10 mM Tris-HCl buffer containing 0.1 mM EDTA (pH 7.4), homogenized, and centrifuged as above. This pellet was further resuspended in a smaller volume of ice cold 10 mM Tris-HCl buffer containing 0.1 mM EDTA (pH 7.4) and homogenized with a Polytron for 20-30 sec at 12.000 rpm. The protein content of this homogenate was determined with the Bio-Rad (Bradford) Protein Assay (Biorad Laboratories GmbH, München, Germany) according to the instructions of the manufacturer using gamma globulin as the standard. This homogenate was stored at −80° C. in aliquots and thawed immediately prior to use.
# (§3) Radioligand Binding Assay Conditions
# (§4) Aliquots of membrane preparations were thawed at RT, resuspended in assay buffer (D2, D3: 50 mM Tris-HCl, 120 mM NaCl, 5 mM MgCl2, 1 mM EDTA, 5 mM KCl, 1.5 mM CaCl2, pH=7.4; 5-HT2A: 50 mM Tris-HCl, 10 mM MgCl2, 1 mM EGTA, pH=7.4), homogenized with a Polytron for 20-30 sec at 12.000 rpm and adjusted to a final concentration of approximately 7.5 μg protein/well (D2, D3) and 15 μg protein/well (5-HT2A), respectively.
# The binding affinity (Ki) of the compounds was determined using radioligand binding. […] The nonspecific binding was determined with equally composed reaction mixtures in the presence of 10 μM unlabeled spiperone. Per well 45 μl of Microscint 40 (Perkin Elmer, Schwerzenbach, Switzerland) was added, plates for sealed, shaken for 20 min and counted for 3 min on a Topcount Microplate Scintillation Counter (Canberra Packard SA, Zürich, Switzerland) with quenching correction.
# (§5) The CPM value for each duplicate of a concentration of competing compound was averaged (yl), then the % specific binding was calculated according to the equation (((yl-non-specific)/(total binding-non-specific))×100). Graphs were plotted with the % specific binding using XLfit, a curve fitting program that iteratively plots the data using Levenburg Marquardt algorithm. The single site competition analysis equation used was y=A+((B−A)/(1+((x/C)^D))), where y is the % specific binding, A is the minimum y, B is the maximum y, C is the IC50, x is the log10 of the concentration of the competing compound and D is the slope of the curve (the Hill Coefficient). […] The affinity constant (Ki) was calculated using the Cheng-Prusoff equation Ki=(IC50/1+([L]/Kd), where [L] is the concentration of radioligand and Kd is the dissociation constant of the radioligand at the receptor as determined by the saturation isotherm.
# [2] = target: T2, human D2 dopamine receptor (Homo sapiens, UniProt P14416); assay: Radioligand binding ([3H]-spiperone) to cloned human D2 receptor, HEK-293 EBNA cell membranes; details: 0.7 nM [3H]-spiperone, 1 h at RT, Cheng-Prusoff
# T2 construct: expressed in transfected cells; host or cells: HEK-293 EBNA cells, transient transfection; membrane preparation
# Method: as §1
# as §2, with “HEK-293 EBNA cells were transiently transfected with expression plasmids encoding for the human D2 or D3 dopamine- or for the human 5-HT2A serotonin receptor, respectively. The cells” for “The cells”
# as §3, §4
# (§6) The binding affinity (Ki) of the compounds was determined using radioligand binding. Membranes were incubated in a total volume of 200 μl with a fixed concentration of radioligand (final concentration approximately 0.7 nM [^3H]-spiperone for D2, 0.5 nM [^3H]-spiperone for D3, and 1.1 nM [^3H]-ketanserin for 5-HT2A) and ten concentrations of test compound in ranging between 10 μM-0.1 nM for 1 h at RT. At the end of the incubation, the reaction mixtures were filtered on to unifilter 96-well white microplates with bonded GF/C filters (Packard BioScience, Zürich, Switzerland; preincubated for 1 h in 0.1% polyethylenimine (PEI) in assay buffer) with a Filtermate 196 harvester (Packard BioScience) and washed 3 times with cold assay buffer. The nonspecific binding was determined with equally composed reaction mixtures in the presence of 10 μM unlabeled spiperone. Per well 45 μl of Microscint 40 (Perkin Elmer, Schwerzenbach, Switzerland) was added, plates for sealed, shaken for 20 min and counted for 3 min on a Topcount Microplate Scintillation Counter (Canberra Packard SA, Zürich, Switzerland) with quenching correction.
# as §5
# [3] = target: T3, human D3 dopamine receptor (Homo sapiens, UniProt P35462); assay: Radioligand binding ([3H]-spiperone) to cloned human D3 receptor, HEK-293 EBNA cell membranes; details: 0.5 nM [3H]-spiperone, 1 h at RT, Cheng-Prusoff
# T3 construct: expressed in transfected cells; host or cells: HEK-293 EBNA cells, transient transfection; membrane preparation
# Method: The ability of the compounds to bind to the 5-HT2A, D3 and D2 receptors was determined using radioligand binding to cloned receptors selectively expressed in HEK-293 EBNA cells.
# as §1
# as §2, with “HEK-293 EBNA cells were transiently transfected with expression plasmids encoding for the human D2 or D3 dopamine- or for the human 5-HT2A serotonin receptor, respectively. The cells” for “The cells”
# as §3, §4, §6, §5
# T2 sequence (P14416 whole entry): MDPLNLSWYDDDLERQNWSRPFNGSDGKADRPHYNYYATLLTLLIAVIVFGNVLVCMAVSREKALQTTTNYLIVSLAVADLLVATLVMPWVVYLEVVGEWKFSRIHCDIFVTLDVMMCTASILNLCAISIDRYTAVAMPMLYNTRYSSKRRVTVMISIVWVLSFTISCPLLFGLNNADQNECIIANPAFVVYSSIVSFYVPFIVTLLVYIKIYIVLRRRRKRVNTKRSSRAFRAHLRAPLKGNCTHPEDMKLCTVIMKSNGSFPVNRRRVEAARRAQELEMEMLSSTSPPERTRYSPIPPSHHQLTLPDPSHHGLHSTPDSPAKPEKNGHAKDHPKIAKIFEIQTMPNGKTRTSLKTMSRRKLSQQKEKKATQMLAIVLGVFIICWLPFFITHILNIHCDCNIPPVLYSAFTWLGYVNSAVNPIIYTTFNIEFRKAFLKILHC
# T3 sequence (P35462 whole entry): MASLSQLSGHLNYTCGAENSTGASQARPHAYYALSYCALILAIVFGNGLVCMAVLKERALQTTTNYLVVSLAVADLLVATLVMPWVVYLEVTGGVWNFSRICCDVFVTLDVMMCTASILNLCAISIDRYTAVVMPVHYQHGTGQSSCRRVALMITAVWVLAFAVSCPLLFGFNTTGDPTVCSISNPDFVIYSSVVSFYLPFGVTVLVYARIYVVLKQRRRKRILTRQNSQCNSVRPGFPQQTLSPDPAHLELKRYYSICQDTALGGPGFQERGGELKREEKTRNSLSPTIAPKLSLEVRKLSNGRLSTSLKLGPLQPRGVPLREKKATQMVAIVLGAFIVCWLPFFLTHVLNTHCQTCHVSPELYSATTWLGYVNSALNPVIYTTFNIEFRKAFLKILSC
# T1 sequence (P28223 whole entry): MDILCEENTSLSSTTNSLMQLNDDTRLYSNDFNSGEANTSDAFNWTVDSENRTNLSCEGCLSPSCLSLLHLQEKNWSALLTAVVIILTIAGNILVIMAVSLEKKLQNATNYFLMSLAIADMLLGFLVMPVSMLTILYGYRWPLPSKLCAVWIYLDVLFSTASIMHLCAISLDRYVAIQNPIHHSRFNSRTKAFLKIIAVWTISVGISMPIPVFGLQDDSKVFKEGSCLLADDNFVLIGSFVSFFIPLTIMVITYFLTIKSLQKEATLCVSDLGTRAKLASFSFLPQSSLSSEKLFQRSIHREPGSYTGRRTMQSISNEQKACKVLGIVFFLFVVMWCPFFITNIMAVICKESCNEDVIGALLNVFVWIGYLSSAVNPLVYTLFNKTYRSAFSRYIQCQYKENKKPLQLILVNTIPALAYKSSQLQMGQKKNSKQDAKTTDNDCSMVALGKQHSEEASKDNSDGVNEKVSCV
SMILES,Ki [1] [nM],Ki [2] [nM],Ki [3] [nM]
"COCC1CC(CC(=O)N[C@H]2CC[C@H](CCN3CCC(C(=O)c4ccc(F)cc4)CC3)CC2)C1 (mixture of isomers) [Example 20, N-trans(4-{2-[4-(4-Fluoro-benzoyl)-piperidin-1-yl]-ethyl}-cyclohexyl)-2-cis/trans (3-methoxymethyl-cyclobutyl)-acetamide]",12,1360,27
"CC1(O)CCC(CC(=O)N[C@H]2CC[C@H](CCN3CCC(C(=O)c4ccc(F)cc4)CC3)CC2)CC1 (mixture of isomers) [Example 22, N-trans (4-{2-[4-(4-Fluoro-benzoyl)-piperidin-1-yl]-ethyl}-cyclohexyl)-2-(4-cis/trans-hydroxy-4-methyl-cyclohexyl)-acetamide]",12,1360,56
"O=C(C[C@H]1CCC[C@@H](O)C1)N[C@H]1CC[C@H](CCN2CCC(C(=O)c3ccc(F)cc3)CC2)CC1 (racemic) [Example 4, rac-N-trans (4-{2-[4-(4-Fluoro-benzoyl)-piperidin-1-yl]-ethyl}-cyclohexyl)-2-cis (3-hydroxy-cyclohexyl)-acetamide]",14,1010,43
"CO[C@@H]1CCC[C@H](CC(=O)N[C@H]2CC[C@H](CCN3CCC(C(=O)c4ccc(F)cc4)CC3)CC2)C1 (racemic) [Example 5, rac-N-trans (4-{2-[4-(4-Fluoro-benzoyl)-piperidin-1-yl]-ethyl}-cyclohexyl)-2-cis (3-methoxy-cyclohexyl)-acetamide]",19,1190,45
"O=C(C[C@H]1CC[C@@H](O)C1)N[C@H]1CC[C@H](CCN2CCC(C(=O)c3ccc(F)cc3)CC2)CC1 (racemic) [Example 6, rac-trans-N (4-{2-[4-(4-Fluoro-benzoyl)-piperidin-1-yl]-ethyl}-cyclohexyl)-2-cis (3-hydroxy-cyclopentyl)-acetamide]",11,828,35
"O=C(C[C@H]1CC[C@H](O)C1)N[C@H]1CC[C@H](CCN2CCC(C(=O)c3ccc(F)cc3)CC2)CC1 (racemic) [Example 7, rac-N-trans (4-{2-[4-(4-Fluoro-benzoyl)-piperidin-1-yl]-ethyl}-cyclohexyl)-2-trans (3-hydroxy-cyclopentyl)-acetamide]",16,807,19
"O=C(CC1CCC(OC2CCOC2)CC1)N[C@H]1CC[C@H](CCN2CCC(C(=O)c3ccc(F)cc3)CC2)CC1 (mixture of isomers) [Example 17, rac-N-Trans (4-{2-[4-(4-Fluoro-benzoyl)-piperidin-1-yl]-ethyl}-cyclohexyl)-2-[4-(tetrahydro-furan-3-yloxy)-cyclohexyl]-acetamide]",11,2610,40
"CCO[C@H]1CC[C@H](CC(=O)N[C@H]2CC[C@H](CCN3CCC(C(=O)c4ccc(F)cc4)CC3)CC2)C1 (racemic) [Example 18, rac-2-(trans-3-Ethoxy-cyclopentyl)-N-trans-(4-{2-[4-(4-fluoro-benzoyl)-piperidin-1-yl]-ethyl}-cyclohexyl)-acetamide]",28,1940,42
"COCC1CCC(CC(=O)N[C@H]2CC[C@H](CCN3CCC(C(=O)c4ccc(F)cc4)CC3)CC2)C1 (mixture of isomers) [Example 28, rac-N-trans (4-{2-[4-(4-Fluoro-benzoyl)-piperidin-1-yl]-ethyl}-cyclohexyl)-2-(3-methoxymethyl-cyclopentyl)-acetamide]",7,1300,33
"COC1CCC(CCC(=O)N[C@H]2CC[C@H](CCN3CCC(C(=O)c4ccc(F)cc4)CC3)CC2)CC1 (mixture of isomers) [Example 29, rac-N-trans (4-{2-[4-(4-Fluoro-benzoyl)-piperidin-1-yl]-ethyl}-cyclohexyl)-3-(4-methoxy-cyclohexyl)-propionamide]",7,1410,41
"CO[C@@H]1CCC[C@@H](CC(=O)N[C@H]2CC[C@H](CCN3CCC(C(=O)c4ccc(F)cc4)CC3)CC2)C1 (single isomer, unassigned) [Example 16, N-trans (4-{2-[4-(4-Fluoro-benzoyl)-piperidin-1-yl]-ethyl}-cyclohexyl)-2-((1R,3R)-3-methoxy-cyclohexyl)-acetamide or N-trans (4-{2-[4-(4-fluoro-benzoyl)-piperidin-1-yl]-ethyl}-cyclohexyl)-2-((1S,3S)-3-methoxy-cyclohexyl)-acetamide]",7,1250,35
"C[C@]1(O)CC[C@H](CC(=O)N[C@H]2CC[C@H](CCN3CCC(C(=O)c4ccc(F)cc4)CC3)CC2)CC1 (single isomer, unassigned) [Example 23, N-trans (4-{2-[4-(4-Fluoro-benzoyl)-piperidin-1-yl]-ethyl}-cyclohexyl)-2-(4-trans-hydroxy-4-methyl-cyclohexyl)-acetamide or N-trans (4-{2-[4-(4-fluoro-benzoyl)-piperidin-1-yl]-ethyl}-cyclohexyl)-2-(4-cis-hydroxy-4-methyl-cyclohexyl)-acetamide]",7,1300,49
"C[C@]1(O)CC[C@@H](CC(=O)N[C@H]2CC[C@H](CCN3CCC(C(=O)c4ccc(F)cc4)CC3)CC2)CC1 (single isomer, unassigned) [Example 24, N-trans (4-{2-[4-(4-Fluoro-benzoyl)-piperidin-1-yl]-ethyl}-cyclohexyl)-2-(4-cis-hydroxy-4-methyl-cyclohexyl)-acetamide or N-trans (4-{2-[4-(4-fluoro-benzoyl)-piperidin-1-yl]-ethyl}-cyclohexyl)-2-(4-trans-hydroxy-4-methyl-cyclohexyl)-acetamide]",9,1200,43
"CO[C@H]1CC[C@@H](CC(=O)N[C@H]2CC[C@H](CCN3CCC(C(=O)c4ccc(F)cc4)CC3)CC2)CC1 [Example 2, N-trans (4-{2-[4-(4-Fluoro-benzoyl)-piperidin-1-yl]-ethyl}-cyclohexyl)-2-cis (4-methoxy-cyclohexyl)-acetamide]",6,1510,28
